The values below are quoted from earlier work in patent US12364689B2, “Dosage regimen for the treatment of cancer” (AstraZeneca AB, priority 2020, dated 2025).

Series [1] has as its target T1, ERα receptor (Homo sapiens, UniProt P03372).
T1 sequence (P03372 1-595): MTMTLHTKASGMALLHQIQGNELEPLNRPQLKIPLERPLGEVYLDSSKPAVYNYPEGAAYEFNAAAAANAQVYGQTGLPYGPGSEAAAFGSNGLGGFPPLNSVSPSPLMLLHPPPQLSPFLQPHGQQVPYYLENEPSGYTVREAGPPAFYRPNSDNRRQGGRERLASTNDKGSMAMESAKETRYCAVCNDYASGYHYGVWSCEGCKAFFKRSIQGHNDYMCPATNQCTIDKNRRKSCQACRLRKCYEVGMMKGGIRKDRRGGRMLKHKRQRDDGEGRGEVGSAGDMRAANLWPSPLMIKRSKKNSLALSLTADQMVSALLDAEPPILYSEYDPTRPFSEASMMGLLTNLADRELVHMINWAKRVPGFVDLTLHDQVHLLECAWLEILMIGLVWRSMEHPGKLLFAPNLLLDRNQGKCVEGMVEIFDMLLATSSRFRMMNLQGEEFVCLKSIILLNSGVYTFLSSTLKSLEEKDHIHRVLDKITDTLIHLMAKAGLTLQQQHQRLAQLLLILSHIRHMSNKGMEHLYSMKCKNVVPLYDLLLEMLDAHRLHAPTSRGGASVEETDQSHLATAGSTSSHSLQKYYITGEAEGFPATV
Conditions: 500 mg monthly dose; cited from earlier work.

The target of series [2] is T1, ERα receptor. To be noted: in vitro breast cell line experiments; cited from earlier work.

As to `C[C@]12CC[C@@H]3c4ccc(O)cc4C[C@@H](CCCCCCCCC[S+]([O-])CCCC(F)(F)C(F)(F)F)[C@H]3[C@@H]1CC[C@@H]2O` (some centres unmarked) [Fulvestrant, fulvestrant], the “turnover of the receptor in patient samples” value at ERα receptor [1] is listed as “less than 50%”. For the same molecule, at ERα receptor [2], the “down-regulation of the receptor” value is given as “complete down-regulation”.
